Data set [1] in a line: Instantaneous solubility in deionized water at room temperature. Type of data set: physicochemical. Particulars: for instantaneous solubility: vigorously mixed with deionized water for 10 minutes at room temperature, clear solution without precipitates. From the text: (§1) The composition can optionally be expressed in terms of the concentration of one or more steviol glycoside(s). Beneficially, it has been founds that compound(s) 1, 2, 3, and/or 4, can improve solubility of steviol glycosides in an aqueous solution, and therefore compositions can be prepared having a greater concentration of steviol glycosides in solution. As used herein “instantaneous solubility” refers to the solubility of a steviol glycoside, or mixture of steviol glycosides, that are vigorously mixed with deionized water at room temperature (25° C.). As used herein “equilibrium solubility” refers to the solubility of a steviol glycoside, or mixture of steviol glycosides, that are vigorously mixed with deionized water at 80° C. for 15 minutes, cooled to room temperature (25° C.), and then observed up to 4 days. Clear solutions without precipitates are considered soluble. Unless indicated otherwise herein, the term “solubility” refers to “equilibrium solubility.”
(§2) Instantaneous solubility is determined by mixing steviol glycoisde with deionized water vigorously for 10 minutes at room temperature. Equilibrium solubility is determined by heating deionized water with steviol glycoside at 80° C. for 15 minutes and cooling down to room temperature for observation up to 4 days. Clear solutions without precipitates are considered soluble.

Data set [2] in a line: Equilibrium solubility (heated at 80° C. for 15 minutes, cooled to room temperature, observed up to 4 days). It counts as physicochemical. The conditions noted are these: for equilibrium solubility: deionized water, 80° C. for 15 minutes, cooled to room temperature, observed up to 4 days.
Description: as §1, §2

For data set [3] the following is noted: taste, versus sucrose/sugar; cited from earlier work.

Bounds are passed on as bounds.

Regarding `C=C1C[C@@]23CC[C@H]4[C@@](C)(CCC[C@@]4(C)C(=O)O[C@@H]4O[C@H](CO)[C@@H](O)[C@H](O)[C@H]4O[C@@H]4O[C@H](CO)[C@@H](O)[C@H](O)[C@H]4O)[C@@H]2CC[C@]1(O[C@@H]1O[C@H](CO)[C@@H](O)[C@H](O[C@@H]2O[C@H](CO)[C@@H](O)[C@H](O)[C@H]2O)[C@H]1O[C@@H]1O[C@H](CO)[C@@H](O)[C@H](O)[C@H]1O)C3` [RebD, rebaudioside D], the figures for the instantaneous solubility in data set [1] and in data set [1] (listed as rebaudioside D) were less than 0.08% and “less than 0.08%”, respectively. Also, in data set [2] (RebD 0.08% in deionized water), the “equilibrium solubility at 0.08%” value is reported as “soluble”. In addition, the equilibrium solubility in data set [2] worked out at 0.08%. Also, in data set [3], the “times sweeter than sucrose” value was 200-220 times.
Turning to `C=C1C[C@@]23CC[C@H]4[C@@](C)(CCC[C@@]4(C)C(=O)O[C@@H]4O[C@H](CO)[C@@H](O)[C@H](O[C@@H]5O[C@H](CO)[C@@H](O)[C@H](O)[C@H]5O)[C@H]4O[C@@H]4O[C@H](CO)[C@@H](O)[C@H](O)[C@H]4O)[C@@H]2CC[C@]1(O[C@@H]1O[C@H](CO)[C@@H](O)[C@H](O[C@@H]2O[C@H](CO)[C@@H](O)[C@H](O)[C@H]2O)[C@H]1O[C@@H]1O[C@H](CO)[C@@H](O)[C@H](O)[C@H]1O)C3` [RebM, rebaudioside M], the “instantaneous solubility at 0.10%” value in data set [1] (RebM 0.10% in deionized water) is recorded as “soluble”. Moreover, the “instantaneous solubility at 0.13%” value in data set [1] (RebM 0.13% in deionized water) was “soluble”. The values for the instantaneous solubility result in data set [1] and in data set [1] (listed as rebaudioside M) were “at least 0.13%” and “about 0.13%”, respectively. The “equilibrium solubility at 0.10%” value in data set [2] (RebM 0.10% in deionized water) is listed as “soluble”. In data set [2] (RebM 0.13% in deionized water), the “equilibrium solubility at 0.13%” value is “soluble”. Moreover, in data set [2] (RebM 0.20% in deionized water), the “equilibrium solubility at 0.20%” value was “soluble”. In addition, the equilibrium solubility result was “at least 0.2%” in data set [2] (listed as rebM) and “about 0.2%” in data set [2] (listed as rebaudioside M).

The record behind these values is US12030905B2, “Steviol glycoside compounds, compositions for oral ingestion or use, and method for enhancing steviol glycoside solubility” (Cargill, Incorporated, priority 2014, dated 2024).
